Measured values from patent publication US7087634B2, “Cyclic AMP-specific phosphodiesterase inhibitors” (ICOS Corporation, priority 1999, dated 2006).
Like-named read-outs stand apart in the source and are kept apart here.

Experiments:
[1] = tested on: recombinant human PDE4; settings: background, reported value; read-out: reported IC50 with respect to recombinant human PDE4; cited from earlier work
[2] = biological target: T1, human recombinant PDE4 (Homo sapiens, UniProt Q07343); experiment: Inhibition of human recombinant PDE4 (charcoal separation PDE assay); type: biochemical
T1 construct: made in house; host or cells: Saccharomyces cerevisiae BJ2-54
Protocol: The compounds of structural formula (I) were tested for an ability to inhibit PDE4. […] The IC50 value for compounds of structural formula (I) were determined using human recombinant PDE4.
Phosphodiesterase activity of the preparations was determined as follows. […] In this assay, PDE activity converts [32P]cAMP or [32P]cGMP to the corresponding [32P]5′-AMP or [32P]5′-GMP in proportion to the amount of PDE activity present. The [32P]5′-AMP or [32P]5′-GMP then was quantitatively converted to free [32P]phosphate and unlabeled adenosine or guanosine by the action of snake venom 5′-nucleotidase. […] The assay was performed at 30° C. in a 100 μL reaction mixture containing (final concentrations) 40 mM Tris HCl (pH 8.0), 1 μM ZnSO4, 5 mM MgCl2, and 0.1 mg/mL bovine serum albumin (BSA). Alternatively, in assays assessing PDE1-specific activity, incubation mixtures further incorporated the use of 0.1 mM CaCl2 and 10 μg/mL calmodulin. PDE enzyme was present in quantities that yield <30% total hydrolysis of substrate (linear assay conditions). The assay was initiated by addition of substrate (1 mM [32P]cAMP or cGMP), and the mixture was incubated for 12 minutes. Seventy-five (75) μg of Crotalus atrox venom then was added, and the incubation was continued for 3 minutes (15 minutes total). The reaction was stopped by addition of 200 μL of activated charcoal (25 mg/mL suspension in 0.1 M NaH2PO4, pH 4). After centrifugation (750×g for 3 minutes) to sediment the charcoal, a sample of the supernatant was taken for radioactivity determination in a scintillation counter and the PDE activity was calculated.

[3] = tested on: TNFα release from human peripheral blood lymphocytes; experiment: Lipopolysaccharide-stimulated TNFα release from human peripheral blood lymphocytes; type: cell-based; settings: Lymphocyte
Protocol: The compounds of structural formulae (I) and (II) were tested for an ability to reduce TNFα secretions in human peripheral blood lymphocytes. The ability of a compound to reduce TNFα secretion is related to the EC50 value for the compound (i.e., the effective concentration of the compound capable of inhibiting 50% of the total TNFα).
To assess the ability of a compound to reduce TNFα secretion in human peripheral blood lymphocytes (PBL), the following tests were performed.
Heparinized blood (approximately 30 mL) drawn from human volunteers was mixed 1:1 with Dulbecco's modified phosphate-buffered saline. This mixture was mixed 1:1 with HISTOPAQUE® and centrifuged at 1,500 rpm at room temperature without braking in the swinging bucket of a Beckman model TJ6 centrifuge. Erythrocytes were centrifuged to the bottom of the tubes, and serum remained at the surface of the tubes. A layer containing lymphocytes sedimented between the serum and HISTOPAQUE® layers, and was removed by aspiration to a fresh tube. The cells were quantified and adjusted to […] and a 100 μL aliquot is placed into the wells of a 96 well plate. Test compounds and RPMI media (Gibco/BRL Life Sciences) are added to each of the wells 15 minutes prior to addition of bacterial LPS ([…]). The mixture was allowed to incubate for 20 hours at 37° C. in a humidified chamber. The cells then were separated by centrifuging at 800 rpm for 5 minutes at room temperature. An aliquot of 180 μL of supernatant was transferred to a new plate for determination of TNFα concentration. TNFα protein in the cell supernatant fluids was measured using a commercially available enzyme-linked immunosorbent assay (ELISA) (CYTOSCREEN® Immunoassay Kit from Biosource International).
(§1) The cell-based assay provided the following results for various compounds of the present invention. The EC50. values (i.e., effective concentration of the compound capable of inhibiting 50% of the total TNFα) illustrate the ability of the present compounds to inhibit LPS-stimulated TNFα release from human PBL.
as §1, with “various pyrazole” for “various”, “EC50” for “EC50.”, “concentrations” for “concentration”, “peripheral blood lymphocytes.” for “PBL.”

[4] = structure table, read-out: PDE4 IC50
[5] = table with PBL/TNFα, read-out: PDE4 IC50
[6] = Homo sapiens, read-out: PBL/TNFα EC50 (μM)
[7] = LPS-stimulated TNFα release from human PBL, read-out: PBL/TNFα EC50
[8] = PDE4 IC50 (μM), structure table
[9] = PDE4 IC50 (μM), table with PBL/TNFα

T1 sequence (Q07343 whole entry): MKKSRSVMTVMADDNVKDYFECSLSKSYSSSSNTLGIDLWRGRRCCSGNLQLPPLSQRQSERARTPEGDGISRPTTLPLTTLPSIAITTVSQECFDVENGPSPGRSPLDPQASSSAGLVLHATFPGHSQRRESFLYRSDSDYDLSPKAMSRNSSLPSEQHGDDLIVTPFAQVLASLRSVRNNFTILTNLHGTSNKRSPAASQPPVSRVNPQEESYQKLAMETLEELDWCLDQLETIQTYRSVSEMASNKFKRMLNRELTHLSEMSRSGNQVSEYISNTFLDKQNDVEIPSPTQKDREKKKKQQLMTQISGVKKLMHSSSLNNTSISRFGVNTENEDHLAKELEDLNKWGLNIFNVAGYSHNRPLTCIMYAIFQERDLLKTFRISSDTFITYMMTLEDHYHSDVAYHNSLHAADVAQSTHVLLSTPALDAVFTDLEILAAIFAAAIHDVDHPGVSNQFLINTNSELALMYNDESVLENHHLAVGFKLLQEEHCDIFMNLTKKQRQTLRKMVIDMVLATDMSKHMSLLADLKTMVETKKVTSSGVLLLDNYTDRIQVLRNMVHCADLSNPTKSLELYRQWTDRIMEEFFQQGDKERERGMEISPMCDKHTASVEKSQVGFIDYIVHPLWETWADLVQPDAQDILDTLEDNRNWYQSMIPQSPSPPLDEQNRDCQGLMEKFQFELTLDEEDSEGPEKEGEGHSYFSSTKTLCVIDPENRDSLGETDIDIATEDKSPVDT

SMILES	IC50 [2, 4]	also measured
COC(=O)N1CC(c2ccc(OC)c(OC3CCCC3)c2)C(C)(C(C)=O)C1 (centres unmarked)		IC50 [1]: ~2 nM
CCOC(=O)c1c(C)nn(-c2ccccc2)c1C [Example 3, 3,5-dimethyl-1-phenyl-1H-pyrazole-4-carboxylic acid ethyl ester]	0.31 µM	IC50 [2, 5]: 0.31 µM; EC50 [3, 6]: 1.8 µM
CCOC(=O)c1c(C)nn(-c2ccc(C)cc2)c1C [Example 4, 3,5-dimethyl-1-p-tolyl-1H-pyrazole-4-carboxylic acid ethyl ester]	3.94 µM	
CCOC(=O)c1c(C)nn(-c2ccccc2[N+](=O)[O-])c1C [Example 5, 3,5-dimethyl-1-(2-nitrophenyl)-1H-pyrazole-4-carboxylic acid ethyl ester]	0.65 µM	
CCOC(=O)c1c(C)nn(-c2ccccc2N)c1C [Example 6, 3,5-dimethyl-1-(2-aminophenyl)-1H-Pyrazole-4-carboxylic acid ethyl ester]	1.13 µM	
CCOC(=O)c1c(C)nn(-c2ccc([N+](=O)[O-])cn2)c1C [Example 7, 3,5-dimethyl-1-(5-nitropyridin-2-yl)-1H-pyrazole-4-carboxylic acid ethyl ester]		IC50 ([2]; read-out: PDE4 IC50, structure table): 12.9 µM
CCOC(=O)c1c(C)nn(-c2cccc(N)c2)c1C [Example 9, 1-(3-aminophenyl)-3,5-dimethyl-1H-pyrazole-4-carboxylic acid ethyl ester]	1.03 µM	IC50 [2, 5]: 1 µM; EC50 [3, 6]: 1.9 µM
CCOC(=O)c1c(C)nn(-c2ncccc2[N+](=O)[O-])c1C [Example 10, 3,5-dimethyl-1-(3-nitropyridin-2-yl)-1H-pyrazole-4-carboxylic acid ethyl ester]	0.2 µM	IC50 [2, 5]: 0.2 µM; EC50 [3, 7]: 2 µM
CCOC(=O)c1c(C)nn(-c2ccc(N)cc2)c1C [Example 11, 3,5-dimethyl-1-(4-aminophenyl)-1H-pyrazole-4-carboxylic acid ethyl ester]	0.3 µM	IC50 [2, 5]: 0.3 µM; EC50 [3, 7]: 1 µM
CCOC(=O)c1c(C)nn(-c2ncccc2N)c1C [Example 12, 1-(3-aminopyridin-2-yl)-3,5-dimethyl-1H-pyrazole-4-carboxylic acid ethyl ester]	0.94 µM	IC50 [2, 5]: 0.94 µM; EC50 [3, 6]: 2.6 µM
CCOC(=O)c1c(C)nn(-c2ccc(NS(=O)(=O)c3ccc(OC)cc3)cc2)c1C [Example 13, 1-[4-(4-methoxybenzenesulfonylamino)phenyl]-3,5-dimethyl-1H-pyrazole-4-carboxylic acid ethyl ester]		IC50 [2, 8]: 1.88 µM
CCOC(=O)c1c(C)nn(-c2ccc(NC(=O)C(C)(C)C)cc2)c1C [Example 14, 1-[4-(2,2-dimethylpropionylamino)phenyl]-3,5-dimethyl-1H-pyrazole-4-carboxylic acid ethyl ester]	6.39 µM	
Cc1ccc(OC(=O)c2c(C)nn(-c3ccccc3)c2C)cc1 [Example 15, 3,5-dimethyl-1-phenyl-1H-pyrazole-4-carboxylic acid p-tolyl ester]	36.5 µM	
Cc1nn(-c2ncccc2[N+](=O)[O-])c(C)c1C(=O)O [Example 16, 3,5-dimethyl-1-(3-nitropyridin-2-yl)-1H-pyrazole-4-carboxylic acid]	47.4 µM	
CCOC(=O)c1c(C)nn(-c2ccc([N+](=O)[O-])cn2)c1C [Example 17, 3,5-dimethyl-1-(5-nitropyridin-2-yl)-1H-pyrazole-4-carboxylic acid ethyl ester]	57.5 µM	
Cc1nn(-c2ccc(N)cc2)c(C)c1C(=O)O [Example 18, 1-(4-aminophenyl)-3,5-dimethyl-1H-pyrazole-4-carboxylic acid]	175 µM	

SMILES	IC50 [2, 4]	also measured
CCOC(=O)c1c(C)nn(C2CCCCC2)c1C [Example 19, 1-cyclohexyl-3,5-dimethyl-1H-pyrazole-4-carboxylic acid ethyl ester]	0.053 µM	IC50 [2, 5]: 0.053 µM; EC50 [3, 7]: 0.52 µM
CCOC(=O)c1cn(-c2ccccn2)nc1C [Example 26, 3-methyl-1-pyridin-2-yl-1H-pyrazole-4-carboxylic acid ethyl ester]	3.59 µM	
CCOC(=O)c1cnn(-c2ccc(N)cc2)c1C(F)(F)F [Example 27, 1-(4-aminophenyl)-5-trifluoromethyl-1H-pyrazole-4-carboxylic acid ethyl ester]	3.61 µM	
Cc1nn(-c2ccccc2)c(C)c1C=O [Example 28, 3,5-Dimethyl-1-phenyl-1H-pyrazole-4-carboxaldehyde]	18 µM	
COC(=O)c1cnn(-c2cc(C(F)(F)F)cc(C)n2)c1C(=O)C=CN(C)C [Example 29, 5-(3-Dimethylaminoacryloyl)-1-(6-methyl-4-trifluoromethylpyridin-2-yl)-1H-pyrazole-4-carboxylic acid methyl ester]	37 µM	
CCOC(=O)c1cnn(-c2ccc([N+](=O)[O-])cc2)c1C(F)(F)F [Example 30, 1-(4-Nitrophenyl)-5-trifluoromethyl-1H-pyrazole-4-carboxylic acid ethyl ester]	45.4 µM	
CCOC(=O)c1cnn(-c2ncc(C(F)(F)F)cc2Cl)c1C [Example 31, 1-(3-Chloro-5-trifluoromethylpyridin-2-yl)-5-methyl-1H-pyrazole-4-carboxylic acid ethyl ester]	63 µM	
C/C(=N\O)c1cnn(-c2cc(C(F)(F)F)cc(C)n2)c1C [Example 32, 1-[5-Methyl-1-(6-methyl-4-trifluoromethyl-pyridin-2-yl)-1H-pyrazol-4-yl]-ethanone oxime]	67.4 µM	
COC(=O)c1cnn(-c2cc(C(F)(F)F)cc(C)n2)c1C(C)=O [Example 33, 5-Acetyl-1-(6-methyl-4-trifluoromethylpyridin-2-yl)-1H-pyrazole-4-carboxylic acid methyl ester]	88.2 µM	
Cc1nn(-c2ccccc2)c(C)c1C(=O)Nc1ccncc1 [Example 34, 3,5-Dimethyl-1-phenyl-1H-pyrazole-4-carboxylic acid pyridin-4-ylamide]	97.9 µM	
CCOC(=O)c1cnn(-c2c(Cl)cc(Cl)cc2Cl)c1COC [Example 35, 5-Methoxymethyl-1-(2,4,6-trichlorophenyl)-1H-pyrazole-4-carboxylic acid ethyl ester]	131 µM	
Cc1nn(-c2ccccc2)c(C)c1C(=O)Nc1ccccc1 [Example 36, 3,5-Dimethyl-1-phenyl-1H-pyrazole-4-carboxylic acid phenylamide]	142 µM	
COC(=O)c1cnn(-c2ccccn2)c1C(C)=O [Example 37, 5-Acetyl-1-pyridin-2-yl-1H-pyrazole-4-carboxylic acid methyl ester]	181 µM	
CCOC(=O)c1c(C)nn(-c2ccc(N=Cc3ccccc3O)cc2)c1C [Example 38]		IC50 [2, 8]: 0.4 µM; IC50 [2, 9]: 0.4 µM; EC50 [3, 6]: 1 µM
CCOC(=O)c1c(C)nn(-c2ccc(N=Cc3ccc(OC)cc3)cc2)c1C [Example 39]		IC50 [2, 8]: 0.69 µM; IC50 [2, 9]: 0.69 µM; EC50 [3, 7]: 1.3 µM
CCOC(=O)c1c(C)nn(-c2ccc(NCc3ccccc3O)cc2)c1C [Example 40]		IC50 [2, 8]: 0.92 µM; IC50 [2, 9]: 0.92 µM; EC50 [3, 6]: 6.2 µM
